Experimental data reported in patent US7919616B2, “Carbapenem compound” (priority 2005, dated 2011).

Columns and labels:
[1] = Stability test of compound (Ia) in crystalline state (purity by HPLC on storage); assay type: physicochemical; details: 20° C. and 40° C., after 6, 17, 21 and 31 days
Protocol: Stability Test of Compound (Ia) in Crystalline State
About 2 g of the compound (Ia) in a crystalline form which was obtained in the same way as Example 1 was placed in sample bottles, and the sample bottles were stored at room temperature (about 20° C.) and in a room maintained at a temperature of about 40° C. Taking the original purity as 100%, after every several number of days, the purity of the compound (Ia) was measured using high-performance liquid chromatography (HPLC). The HPLC measurement conditions are shown below.
Solvent delivery system: LC-10A (manufactured by Shimadzu Corporation)
UV, VIS detector: SPD-10A (manufactured by Shimadzu Corporation)
Detection wavelength: 215 nm
Column heater: Sugai U-620 (used at 40° C., Sugai Chemical Industry Co., Ltd.)
Column: Inertsil® ODS-2 (4.6 mm diameter×250 mm length, GL Sciences, Inc.)

[2] = disclosed in Patent Document 1; cited from earlier work

Compound | stability of the crystalline form [1] | stability in the crystalline form [2]
C=CCOC(=O)C1=C(OP(=O)(OCC(Cl)(Cl)Cl)OCC(Cl)(Cl)Cl)[C@H](C)[C@@H]2[C@@H]([C@@H](C)O)C(=O)N12 [compound (Ia), allyl-(1R,5R,6S)-2-[bis(2,2,2-trichloroethyl)phosphoryloxy]-6-[(R)-1-hydroxyethyl]-1-methyl-carbapenem-3-carboxylate] | very stable without a decrease in purity | 
C[C@@H](O)[C@H]1C(=O)N2C(C(=O)OCc3ccc([N+](=O)[O-])cc3)=C(OP(=O)(Oc3ccccc3)Oc3ccccc3)[C@H](C)[C@H]12 [compound (Ib)] |  | excellent stability in the crystalline form
